Measurements published in PMC10785756, “Hydrolysis of Antimicrobial Peptides by Extracellular Peptidases in Wastewater” (Environmental Science & Technology, 2023).
Where two headings read alike, the source gives them in different places. Blank lines part the entries; values can stand above or below the compound they belong to. Peptide text beside a SMILES is read from it.

Assays:
[1] = tested on: extracellular wastewater peptidases (pool I extracts from WWTP influents); test: Absolute quantification of transformation products (TPs) formed during AMP incubation with wastewater extracts; assay type: in vitro ADME
Protocol: We thawed enzyme extracts and transferred 1.35 mL to 2 mL protein LoBind Eppendorf tubes. For autoclaved controls, extract aliquots of 1.5 mL were autoclaved for 20 min at 121 °C and 2 bar (Wolf Sanoclav LaS-MCS-J) and 1.35 mL of the autoclaved extracts were transferred into 2 mL protein LoBind Eppendorf tubes. We then spiked 150 μL of the AMP stock solution containing all AMPs at 10 μg/mL to the enzyme extracts or 1.35 mL of ultrapure water. […] Triplicate incubations were conducted for the autoclaved and active extracts with spiked AMP. After AMP spiking, we mixed the solutions by inverting the vials and incubating them at 20 °C under horizontal shaking at 300 rpm. To stop enzymatic reactions at pre-defined sampling time points (i.e., 2 min, 30 min, 1 h, 2 h, and 4 h), we transferred 150 μL of the incubation solution to 450 μL of acetonitrile containing 1% (v/v) formic acid in 1.5 mL protein LoBind Eppendorf tubes, mixed the resulting solution by inverting the tube and by horizontally shaking it at 300 rpm for 2 min at 20 °C, and centrifuged samples at 16,000g for 1 min. This protocol step was conducted according to Luther et al.[9] We then transferred the supernatant into a fresh 1.5 mL protein LoBind Eppendorf tube and dried it in a SpeedVac vacuum concentrator (30 °C for approximately 6 h). To resolubilize AMPs, we added 150 μL of water containing 5% (v/v) acetonitrile and 0.1% (v/v) formic acid, vortexed the samples, and centrifuged them for 10 s at 1000g at room temperature. We transferred the solution into QuanRecovery HPLC vials (Waters, 186009186) and stored the samples at −20 °C until analysis. For method development, selected (and indicated) samples were sonicated (Sonorex Super RK 106, Bandelin, max 480 W) for 5 min at different steps of the sample preparation process.
We analyzed AMPs using UHPLC (Thermo Scientific Dionex Ultimate 3000) equipped with a Waters XSelect PREMIER CSH C18 column (article number: 186009870) coupled to HRMS (Thermo QExactive). […] We used Skyline (version 20.2.0.343) to analyze the raw data. Criteria for parent peptides and hydrolysis product identification were set as described before:[31]m/z deviation <2 ppm, MS/MS fragments with m/z deviation <5 ppm, and reasonable chromatographic peak shape. For products, the peak area had to either increase throughout the incubation experiment or first increase and then decrease.
To learn about the enzymatic hydrolysis pathways of AMPs that we found to be rapidly biotransformed by enzymes in wastewater extracts, we predicted all products of single peptide bond hydrolysis reactions and screened our data-dependent high-resolution mass spectrometry data for experimental evidence in support of the predicted hydrolysis products. These analyses were conducted for the AMPs with the highest biotransformation extents (i.e., >0.5 in at least two WWTPs), namely, cecropin P1, omiganan, and R8. The following requirements for transformation products (TPs) were defined: at least three amino acids, peak area either increases during the incubation experiment or first increases and then decreases, peak area exceeds that in AMP-free enzyme extract by >5-fold and that in spiked autoclaved extracts by >6-fold, and mass deviation <2 ppm from the calculated exact mass. Mass lists, mass deviations, and retention times of all TPs can be found in Tables S6–S11. We further predicted TPs formed via exocleavage mechanisms (i.e., cleavage of one or two terminal amino acids simultaneously from the C- and N- terminus of the peptide) and screened for these TPs in the HRMS data.
For cecropin P1, we performed absolute quantification for TPs II, III, IV, V, VI, and X and found the highest concentrations for TP III. Up to 8.8% of spiked cecropin P1 is converted to TP III during incubations with wastewater extract. For TP II, the conversion ranges from 3.7–5.7%, and for TP V and VI, conversions range between 1.5 and 4.9 and 2.1 and 2.9%, respectively. […]

[2] = tested on: extracellular wastewater peptidases (pool I extracts from WWTP influents); test: AMP incubation with active dissolved extracellular wastewater extracts (pool I) from WWTP influents; assay type: in vitro ADME
Protocol: We took samples from four municipal WWTPs in Austria ([…], and D). […] Where existing, we sampled the following five stages along the wastewater treatment process: influent, primary clarification tank, high-load and low-load aeration tanks, and effluent. […] We took 2 × 500 mL grab samples at each stage using a plastic beaker. We transferred the samples into 500 mL glass bottles leaving roughly one-third of the bottle empty, transported them to the lab, and pooled duplicate samples for further processing. Enzyme extraction started within 1 h after sampling. For total suspended solid (TSS) determination, we filtered 20 mL of each sample through a preweighed, dry GF/F Whatman glass microfiber filter (Sigma-Aldrich, WHA1825047) using a vacuum filtration system, dried the filters at 105 °C for 2 h, and determined the TSS contents from the weight difference. […] Otherwise, the extraction process was the same for pools I and II. All extractions were performed in triplicate, and extracts were kept on ice until further use. […] Triplicate incubations were conducted for the autoclaved and active extracts with spiked AMP. […] This protocol step was conducted according to Luther et al.[9] We then transferred the supernatant into a fresh 1.5 mL protein LoBind Eppendorf tube and dried it in a SpeedVac vacuum concentrator (30 °C for approximately 6 h). […] We transferred the solution into QuanRecovery HPLC vials (Waters, 186009186) and stored the samples at -20 °C until analysis. For method development, selected (and indicated) samples were sonicated (Sonorex Super RK 106, Bandelin, max 480 W) for 5 min at different steps of the sample preparation process. We analyzed AMPs using UHPLC (Thermo Scientific Dionex Ultimate 3000) equipped with a Waters XSelect PREMIER CSH C18 column (article number: 186009870) coupled to HRMS (Thermo QExactive). We injected 10 μL of each sample and applied a flow rate of 0.4 mL/min using the following eluent gradient (A: ultrapure water, B: […] Detection parameters were chosen as follows: […] We used Skyline (version 20.2.0.343) to analyze the raw data. […] For products, the peak area had to either increase throughout the incubation experiment or first increase and then decrease.

[3] = tested on: dissolved extracellular wastewater enzymes derived from aeration tanks of WWTPs; details: cited from earlier work
Protocol: Our results on daptomycin are consistent with an earlier study that reported daptomycin concentrations to be stable during its incubation with dissolved extracellular wastewater enzymes derived from aeration tanks of WWTPs.[33] We note that daptomycin concentrations in experiments with autoclaved controls were lower compared to active extracts for ...

[4] = maximum TP concentration corrected for sorption to the wastewater matrix
[5] = maximum TP concentration during incubation of parent AMP with wastewater extracts, synthetic standards, HPLC-HRMS
[6] = pool I influent extracts, WWTPs A-D, absolute quantification with synthetic peptide standards, HPLC-HRMS, triplicate incubations
[7] = pool I influent extracts, WWTPs A-D, active compared with autoclaved extracts, 20 °C, up to 4 h, HPLC-HRMS, triplicate incubations

Compound: CC[C@H](C)[C@H](NC(=O)[C@H](C)N)C(=O)N[C@@H](CCC(N)=O)C(=O)NCC(=O)NCC(=O)N1CCC[C@H]1C(=O)N[C@@H](CCCNC(=N)N)C(=O)O [AIQGGPR (V)] (H-AIQGGPR-OH)
Potential conc. considering sorption [1, 4]: 78.2 µg/L
Maximum conc. detected in exp. [1, 5]: 48.6 µg/L

Compound: CC(C)[C@H](NC(=O)[C@H](CCCCN)NC(=O)CNC(=O)[C@H](Cc1ccccc1)NC(=O)[C@@H](NC(=O)[C@H](C)N)C(C)C)C(=O)O [AVFGKV (V)] (H-AVFGKV-OH)
Potential conc. considering sorption [1, 4]: 30.0 µg/L
Maximum conc. detected in exp. [1, 5]: 27.5 µg/L

Maximum conc. detected in exp. [1]: 22.8 µg/L
Potential conc. considering sorption [1]: 29.3 µg/L
Compound: CC(C)C[C@H](NC(=O)[C@@H](N)Cc1ccccc1)C(=O)NCC(=O)O [FLG (IV)] (H-Phe-Leu-Gly-OH)

Compound: CC(C)C[C@H](NC(=O)[C@@H](N)Cc1ccccc1)C(=O)NCC(=O)N[C@@H](CCCCN)C(=O)N[C@H](C(=O)O)C(C)C [FLGKV (II)] (H-FLGKV-OH)
Potential conc. considering sorption [1, 4]: 19.5 µg/L
Maximum conc. detected in exp. [1, 5]: 16.5 µg/L

Compound: CC(C)C[C@H](NC(=O)[C@@H](N)Cc1ccccc1)C(=O)NCC(=O)N[C@@H](CCCCN)C(=O)N[C@H](C(=O)N[C@@H](Cc1ccccc1)C(=O)O)C(C)C [FLGKVF (I)] (H-FLGKVF-OH)
Potential conc. considering sorption [1, 4]: 101.9 µg/L
Maximum conc. detected in exp. [1, 5]: 78.3 µg/L
conversion of spiked parent AMP to the TP during incubation with wastewater extract [1, 6]: Up to 7.8%

Maximum conc. detected in exp. [1]: 6.9 µg/L
Potential conc. considering sorption [1]: 8.1 µg/L
conversion of spiked parent AMP to the TP during incubation with wastewater extract [1]: less than 1%
Compound: CC[C@H](C)[C@H](N)C(=O)N[C@@H](CC(C)C)C(=O)N[C@@H](CCCNC(=N)N)C(=O)N[C@@H](Cc1c[nH]c2ccccc12)C(=O)N1CCC[C@H]1C(=O)N[C@@H](Cc1c[nH]c2ccccc12)C(=O)N[C@@H](Cc1c[nH]c2ccccc12)C(=O)N1CCC[C@H]1C(=O)O [ILRWPWWP (I)] (H-ILRWPWWP-OH)

Compound: CC[C@H](C)[C@H](N)C(=O)N[C@@H](CCC(N)=O)C(=O)NCC(=O)NCC(=O)N1CCC[C@H]1C(=O)N[C@@H](CCCNC(=N)N)C(=O)O [IQGGPR (III)] (H-IQGGPR-OH)
Potential conc. considering sorption [1, 4]: 124.8 µg/L
Maximum conc. detected in exp. [1, 5]: 87.8 µg/L
conversion of spiked parent AMP to the TP during incubation with wastewater extract [1, 6]: Up to 8.8%

Maximum conc. detected in exp. [1]: 2.7 µg/L
Potential conc. considering sorption [1]: 3.4 µg/L
conversion of spiked parent AMP to the TP during incubation with wastewater extract [1]: less than 1%
Compound: CC(C)C[C@H](NC(=O)[C@H](Cc1c[nH]c2ccccc12)NC(=O)[C@@H](N)CO)C(=O)O [SWL (IV)] (H-Ser-Trp-Leu-OH)

Compound: CC(C)C[C@H](NC(=O)[C@H](Cc1c[nH]c2ccccc12)NC(=O)[C@@H](N)CO)C(=O)N[C@@H](CO)C(=O)O [SWLS (II)] (H-SWLS-OH)
Potential conc. considering sorption [1, 4]: 69.5 µg/L
Maximum conc. detected in exp. [1, 5]: 57.1 µg/L
conversion of spiked parent AMP to the TP during incubation with wastewater extract [1, 6]: 3.7–5.7%

Compound: CC(C)C[C@H](NC(=O)[C@H](Cc1c[nH]c2ccccc12)NC(=O)[C@@H](N)CO)C(=O)N[C@@H](CO)C(=O)N[C@@H](CCCCN)C(=O)N[C@H](C(=O)O)[C@@H](C)O [SWLSKT (X)] (H-SWLSKT-OH)
Potential conc. considering sorption [1, 4]: 3.7 µg/L
Maximum conc. detected in exp. [1, 5]: 2.9 µg/L
conversion of spiked parent AMP to the TP during incubation with wastewater extract [1, 6]: less than 1%

Compound: CC(C)C[C@H](NC(=O)[C@H](Cc1c[nH]c2ccccc12)NC(=O)[C@@H](N)CO)C(=O)N[C@@H](CO)C(=O)N[C@@H](CCCCN)C(=O)N[C@H](C(=O)N[C@@H](C)C(=O)O)[C@@H](C)O [SWLSKTA (VI)] (H-SWLSKTA-OH)
Potential conc. considering sorption [1, 4]: 36.4 µg/L
Maximum conc. detected in exp. [1, 5]: 28.6 µg/L

Compound: CC(C)[C@H](N)C(=O)N[C@@H](Cc1ccccc1)C(=O)NCC(=O)N[C@@H](CCCCN)C(=O)N[C@H](C(=O)O)C(C)C [VFGKV (VII)] (H-VFGKV-OH)
Potential conc. considering sorption [1, 4]: 47.1 µg/L
Maximum conc. detected in exp. [1, 5]: 32.1 µg/L

Compound: bacitracin A
removal by biotransformation in active wastewater extracts (in words) [2, 7]: did not observe substantial removal

removal by biotransformation in active wastewater extracts (in words) [2]: biotransformed
detectable removal during incubation, of the amounts detected at the first time point, in active extracts ([2]; pool I influent extracts, WWTPs A-D, all AMPs spiked together (150 μL of 10 μg/mL into 1.35 mL extract), 20 °C, 300 rpm, sampling 2 min to 4 h, HPLC-HRMS, triplicate incubations, maximum over WWTPs): up to 50%
Compound: colistin A

removal by biotransformation in active wastewater extracts (in words) [2]: biotransformed
Compound: colistin B

Compound: daptomycin
removal by biotransformation in active wastewater extracts (in words) [2, 7]: did not observe substantial removal
daptomycin concentration during incubation with dissolved extracellular wastewater enzymes [3]: stable

removal by biotransformation in active wastewater extracts (in words) [2]: did not observe substantial removal
Compound: murepavadin

biotransformation extent (eq 1, from concentrations in active and autoclaved extracts) [2]: > 0.5
Compound: omiganan
removal by biotransformation in active wastewater extracts (in words) [2]: rapidly removed to nonquantifiable concentrations
